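These data come from cells grown in 96-well plates and exposed to compound for 48 hours at five concentrations. The concentration for 50% growth inhibition is given as GI50.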 Active and inactive are the calls of the source. No stated cut-off is given here; in the data, active = GI50 up to about 1.1 µM and inactive = higher.
Tests used:
Assay in all cases: NCI anticancer screen, dose series, 48 h
A549 = tested on: A549
MDA-MB-435 = tested on: MDA-MB-435
HT-29 = tested on: HT-29
A498 = tested on: A498
K562 = tested on: K562
OVCAR-3 = tested on: OVCAR-3
HCT-15 = tested on: HCT-15
HOP-92 = tested on: HOP-92
Hs-578T = tested on: Hs-578T
SF-268 = tested on: SF-268
UACC-257 = tested on: UACC-257
KM12 = tested on: KM12
SK-MEL-28 = tested on: SK-MEL-28
OVCAR-5 = tested on: OVCAR-5
EKVX = tested on: EKVX
MCF7 = tested on: MCF7
MDA-MB-231 = tested on: MDA-MB-231
MOLT-4 = tested on: MOLT-4
HL-60 = tested on: HL-60
SR = tested on: SR

Compound | GI50 (A549) | GI50 (MDA-MB-435) | GI50 (HT-29) | GI50 (A498) | GI50 (K562) | GI50 (OVCAR-3) | GI50 (HCT-15) [µM] | GI50 (HOP-92) | GI50 (Hs-578T) | GI50 (SF-268) | GI50 (UACC-257) | GI50 (KM12) | GI50 (SK-MEL-28) | GI50 (OVCAR-5) | GI50 (EKVX) | GI50 (MCF7) | GI50 (MDA-MB-231) | GI50 (MOLT-4) | GI50 (HL-60) | GI50 (SR)
C/C=C(/CBr)CCC(Br)C(C)(C)Cl.C/C=C(\CBr)CCC(Br)C(C)(C)Cl (stereo not given) | > 10 µM (inactive) | > 10 µM (inactive) | > 10 µM (inactive) | > 10 µM (inactive) | > 10 µM (inactive) | > 10 µM (inactive) | > 10 | > 10 µM (inactive) | > 10 µM (inactive) | > 10 µM (inactive) | > 10 µM (inactive) | > 10 µM (inactive) | > 10 µM (inactive) | > 10 µM (inactive) | > 10 µM (inactive) | > 10 µM (inactive) | > 10 µM (inactive) | > 10 µM (inactive) |  | 
CC1OC(OC2C(OC(=O)[C@@H]3CC(C)(C)C[C@@H]4C5=CC[C@@H]6[C@@]7(C)C[C@H](O)[C@H](OC8OC(CO)C(O)C(O)C8O)[C@@](C)(CO)C7[C@H](O)C[C@@]6(C)[C@]5(C)C[C@@H](O)[C@H]43)OCC(O)C2O)C(O)C(O)C1O (stereo not given in full) |  | > 15 µM (inactive) | 11.5 µM (inactive) |  | > 15 µM (inactive) | > 15 µM (inactive) | > 15 | > 15 µM (inactive) | > 15 µM (inactive) | > 15 µM (inactive) | > 15 µM (inactive) | > 15 µM (inactive) |  | 7.96 µM (inactive) | 9.73 µM (inactive) | > 15 µM (inactive) | > 15 µM (inactive) | > 15 µM (inactive) | > 15 µM (inactive) | 
CC(=O)Nc1ccc(S(=O)(=O)/N=c2/sc(S(N)(=O)=O)nn2C)cc1 | > 100 µM (inactive) | > 100 µM (inactive) | > 100 µM (inactive) | > 100 µM (inactive) |  | > 100 µM (inactive) | > 100 | > 100 µM (inactive) |  | > 100 µM (inactive) |  | > 100 µM (inactive) | > 100 µM (inactive) | > 100 µM (inactive) | > 100 µM (inactive) |  | > 100 µM (inactive) | > 100 µM (inactive) | > 100 µM (inactive) | > 100 µM (inactive)
CCOP(=O)(OCC)c1cc(-c2ccccc2)ccc1N | > 100 µM (inactive) | > 100 µM (inactive) | > 100 µM (inactive) | > 100 µM (inactive) | > 100 µM (inactive) | > 100 µM (inactive) | > 100 | 34.6 µM (inactive) | 52 µM (inactive) | > 100 µM (inactive) | > 100 µM (inactive) | > 100 µM (inactive) | > 100 µM (inactive) | > 100 µM (inactive) | 41.5 µM (inactive) | > 100 µM (inactive) | > 100 µM (inactive) | > 100 µM (inactive) |  | 
Clc1ccc(OCc2nnc(CCCCCCCCc3nnc(COc4ccc(Cl)cc4Cl)o3)o2)c(Cl)c1 | 49.2 µM (inactive) | > 100 µM (inactive) | > 100 µM (inactive) | > 100 µM (inactive) | 18.2 µM (inactive) |  | 97.5 | 41.1 µM (inactive) |  | 42 µM (inactive) | > 100 µM (inactive) | 95.1 µM (inactive) | > 100 µM (inactive) | > 100 µM (inactive) | > 100 µM (inactive) | 42.3 µM (inactive) | > 100 µM (inactive) | 14.3 µM (inactive) |  | 
Cc1ccc2c(c1)NC(=O)CCSSCCC(=O)N2 | > 100 µM (inactive) | > 100 µM (inactive) | > 100 µM (inactive) | > 100 µM (inactive) | > 100 µM (inactive) | > 100 µM (inactive) | > 100 | > 100 µM (inactive) | > 100 µM (inactive) | > 100 µM (inactive) | > 100 µM (inactive) | > 100 µM (inactive) | > 100 µM (inactive) | > 100 µM (inactive) | > 100 µM (inactive) |  | > 100 µM (inactive) | > 100 µM (inactive) | > 100 µM (inactive) | > 100 µM (inactive)
CNC(=O)C(C)C1C(=O)/C(=C(O)/C=C\C(C)=C\C(C)C2OC3(C)OC(C=CC34CO4)C2C)C(=O)N1C1CCC(O)C(C)O1 (stereo not given) | > 100 µM (inactive) | > 100 µM (inactive) | > 100 µM (inactive) | > 100 µM (inactive) | > 100 µM (inactive) | > 100 µM (inactive) | > 100 |  |  | > 100 µM (inactive) | > 100 µM (inactive) | > 100 µM (inactive) | > 100 µM (inactive) | > 100 µM (inactive) | > 100 µM (inactive) | > 100 µM (inactive) | > 100 µM (inactive) | > 100 µM (inactive) |  | > 100 µM (inactive)
CC(=O)c1c(C)n(C)c2c1nnc1ccccc12 | 32.2 µM (inactive) | 61.7 µM (inactive) | 34.1 µM (inactive) | 21.1 µM (inactive) |  | > 100 µM (inactive) | 42.1 | 43.9 µM (inactive) | 32.6 µM (inactive) | 34.1 µM (inactive) | > 100 µM (inactive) | 47.6 µM (inactive) | > 100 µM (inactive) |  | 12.8 µM (inactive) | 26.5 µM (inactive) | 59 µM (inactive) |  |  | 
